The source of these data is patent publication US4902686A, “Tricyclic heterocyclic compounds and their use in treating benzodiazepin receptor-related ailments” (A/S Ferrosan, priority 1987, dated 1990).

The assay concerns benzodiazepine receptors. The experiment in a line: in vivo displacement of 3H-flunitrazepam from brain benzodiazepine receptors in mice. Set-up: species or system mice (female, NMR). As to conditions: i.p. test substance 15 min before 3H-flunitrazepam i.v., dose reducing specific forebrain binding to 50% of control. An excerpt: The pharmaceutical properties of the compounds of the invention can be illustrated by determining their capability for displacing radioactive labelled flunitrazepam from benzodiazepine receptors.
The displacement activity of the compounds of the invention may be found by determining the ED50 value. The ED50 value represents the dose (mg/kg) of a test substance which causes the specific binding of flunitrazepam to benzodiazepine receptors in a living brain to be reduced to 50% of the control value.
Such an in vivo test is carried out as follows:
Principle. Twenty minutes after a dose of ^3 H-flunitrazepam (^3 H-FNM) (200μCi/kg, i.v.) the amount of specific ^3 H-FNM binding to brain benzodiazepine receptors has reached its maximal value.
Test procedure. Suspensions of test substances (2 mg/ml) are prepared in 5% Duphasol-X (TM Duphar, castor oil-ethylene oxide derivative for emulsifying and solubilizing oil and other water-insoluble substances) by sonification for 10 min using a Branson B15 microtip ultrasonifier (setting 7). Groups of three mice (female, NMR, 18-22 grams) are injected with the test substance at 100 mg/kg intraperitoneally. Fifteen minutes after test substance administration the mice are challenged with 4 μCi intravenously of ^3 H-FNM (70-90 Ci/mole) in 200 μl physiological saline. Twenty minutes after ^3 H-FNM administration mice are sacrificed by decapitation, the forebrains rapidly excised (within 30 sec) and homogenized in 12 ml of icecold 25 mM KH2 PO4, pH 7.1, using an Ultra-Turrax homogenizer fitted with an N 10 shaft. Two aliquots of 1 ml are immediately filtered through Whatman GF/C glassfibre filters and washed with 2×5 ml of the above mentioned buffer. The amounts of radioactivity on the filters are determined by conventional scintillation counting. One group of untreated mice serves as control. One to three mice are injected with 25 μg/kg clonazepam i.p. 30 minutes before ^3 H-FNM to determine the amount of non-specific ^3 H-FNM binding, which should be between 8-15% of total binding. When doses of 100 mg/kg inhibit more than 50% of specific ^3 H-flunitrazepam binding; test substances are administered in doses, which are factors of 3.16 times lower than 100 mg/kg. The ED50 for a test substance is defined as that dose which inhibits 50% of specific ^3 H-FNM binding. Specific binding is the amount of binding in controls minus the amount binding in clonazepam-treated mice.
Results. The ED50 value is determined from dose response curves. If only one dose of test substance is administered the ED50 value is calculated as follows, provided that the inhibition of specific binding is within the range of 25-75%: [formula] where Co is specific binding in controls and Cx is specific binding in mice treated with test substance.

Consider `Cn1c(=O)c2c(-c3nc(C4CC4)no3)ncn2c2cccnc21`, for which the “in vivo bind. ED50” value came to 0.9 mg/kg. For the molecule `Cn1c(=O)c2c(Oc3ccc(F)cc3)cccc2n2cnc(-c3noc(C4CC4)n3)c12`, the “in vivo bind. ED50” value is reported as 2.9 mg/kg. With `CCn1c(=O)c2c(-c3nc(C4CC4)no3)ncn2c2ccccc21` the figure was 1.4 mg/kg. With `Cc1nc(-c2ncn3c4cccc(C#C[Si](C)(C)C)c4c(=O)n(C)c23)no1` [4,5-Dihydro-4-methyl-3-(5-methyl-1,2,4-oxadiazol-3-yl)-5-oxo-6-trimethylsilylethynyl-imidazo(1,5-a)quinazoline], the “in vivo bind. ED50” value worked out at 3.7 mg/kg.

Take `CCn1c(=O)c2c(-c3noc(C4CC4)n3)ncn2c2cccnc21`: the “in vivo bind. ED50” value came to 0.7 mg/kg.
